According to patent US20260199365A1, “BIS-SULFONAMIDE SHIP1 ACTIVATORS” (The Research Foundation for the State University of New York, priority 2022, published 2026):

Molecular target: T1, recombinant human truncated SHIP1 (tSHIP1) (Homo sapiens, UniProt Q92835)
T1 construct: tSHIP1 (SHIP1, residues 397-864) was amplified from pET24TEV-tSHIP1; His tag; made in house; host or cells: E. coli BL21
T1 sequence (Q92835 397-864): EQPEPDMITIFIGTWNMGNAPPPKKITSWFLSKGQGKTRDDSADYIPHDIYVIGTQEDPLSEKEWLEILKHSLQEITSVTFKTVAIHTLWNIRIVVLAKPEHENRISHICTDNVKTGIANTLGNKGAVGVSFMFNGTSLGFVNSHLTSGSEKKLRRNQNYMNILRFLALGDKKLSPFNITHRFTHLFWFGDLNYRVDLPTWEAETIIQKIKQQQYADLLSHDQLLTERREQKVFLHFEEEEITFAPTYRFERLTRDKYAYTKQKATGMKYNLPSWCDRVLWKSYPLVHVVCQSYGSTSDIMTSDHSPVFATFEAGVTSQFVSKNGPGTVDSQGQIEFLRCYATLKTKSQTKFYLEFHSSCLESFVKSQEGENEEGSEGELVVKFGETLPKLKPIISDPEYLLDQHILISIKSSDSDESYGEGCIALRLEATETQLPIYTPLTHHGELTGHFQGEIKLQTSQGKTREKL
Test: Malachite Green Phosphatase Release Assay (SHIP1 phosphatase activity)
Type: biochemical
Conditions: for SHIP1 activation, increase in the malachite green assay: initial testing
Method in brief: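 Truncated SHIP1 (residues 397-864, His-tagged, E. coli-expressed) was preincubated 2 min at room temperature with compound in pH 7.4 Hepes buffer with MgCl2/EDTA. 100 μM PI(3,4,5)P3-diC8 was then added and the reaction run 20 min at 37 °C. Phosphate release was read with malachite green at 620 nm, as % of DMSO control activity.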

Cc1sc(S(=O)(=O)N2CCSCC2)cc1NC(=O)CNS(=O)(=O)c1ccc(F)cc1 [Compound K306, 2-(4-Fluorobenzenesulfonamido)-N-[2-methyl-5-(thiomorpholine-4-sulfonyl)thiophen-3-yl]acetamide]
Phosphatase activity in the Malachite Green Assay, analog concentration 125 μM (125 μM analog, 100 μM PI(3,4,5)P3-diC8 substrate, normalized to vehicle control (DMSO) = 100%): 95%
Phosphatase activity in the Malachite Green Assay, analog concentration 250 μM (250 μM analog, 100 μM PI(3,4,5)P3-diC8 substrate, normalized to vehicle control (DMSO) = 100%): 106%
Phosphatase activity in the Malachite Green Assay, analog concentration 500 μM (500 μM analog, 100 μM PI(3,4,5)P3-diC8 substrate, normalized to vehicle control (DMSO) = 100%, >100% activation, <100% inhibition): 133%
SHIP1 activation, increase in the malachite green assay (tested at 250 μM): 6%
SHIP1 activation, increase in the malachite green assay (tested at 500 μM): 33%
